The values that follow come from PubChem BioAssay AID330 (DTP/NCI, 2004).

Where “and” joins values, the source holds several entries; their conditions need not be identical. Equal values may be shown once. Inconclusive results and toxic doses are left out.

The test system of this assay is P388 leukemia ip, CD2F1 mice, survival T/C. The assay can be described thus: NCI In Vivo Anticancer Drug Screen. Data for tumor model P388 Leukemia (intraperitoneal) in CD2F1 (CDF1) mice. As to conditions: endpoint: median survival time, higher = longer survival. Summed up:
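Mice carrying the transplanted tumor received test compound or vehicle. Survival was recorded in each group, and the value is the treated-group measurement divided by that of the vehicle-treated control group.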

[1] abbreviates: dose: 50.0 mg/kg/injection, schedule: Q01DX009 (ip), vehicle: Klucel (hydroxypropylcellulose) (HPC).
Where [2] appears, read: dose: 100.0 mg/kg/injection, schedule: Q01DX009 (ip), vehicle: Klucel (hydroxypropylcellulose) (HPC).
[3] abbreviates: dose: 200.0 mg/kg/injection, schedule: Q01DX009 (ip), vehicle: Klucel (hydroxypropylcellulose) (HPC).
Where [4] appears, read: dose: 100.0 mg/kg/injection, schedule: Q04DX003 (ip), vehicle: Klucel (hydroxypropylcellulose) (HPC).
Where [5] appears, read: dose: 200.0 mg/kg/injection, schedule: Q04DX003 (ip), vehicle: Klucel (hydroxypropylcellulose) (HPC).
[6] abbreviates: dose: 400.0 mg/kg/injection, schedule: Q04DX003 (ip), vehicle: Klucel (hydroxypropylcellulose) (HPC).
Where [7] appears, read: dose: 25.0 mg/kg/injection, schedule: Q01DX009 (ip), vehicle: saline.
Setting [8] is: dose: 50.0 mg/kg/injection, schedule: Q01DX009 (ip), vehicle: saline.
Setting [9] is: dose: 100.0 mg/kg/injection, schedule: Q01DX009 (ip), vehicle: saline.
Setting [10] is: dose: 200.0 mg/kg/injection, schedule: Q01DX009 (ip), vehicle: saline.
Where [11] appears, read: dose: 50.0 mg/kg/injection, schedule: Q01DX005 (ip), vehicle: saline.
The mark [12] stands for this setting: dose: 100.0 mg/kg/injection, schedule: Q01DX005 (ip), vehicle: saline.
The mark [13] stands for this setting: dose: 50.0 mg/kg/injection, schedule: Q01DX005 (ip), vehicle: Klucel (hydroxypropylcellulose) (HPC).
[14] abbreviates: dose: 100.0 mg/kg/injection, schedule: Q01DX005 (ip), vehicle: Klucel (hydroxypropylcellulose) (HPC).
Setting [15] is: dose: 200.0 mg/kg/injection, schedule: Q01DX005 (ip), vehicle: Klucel (hydroxypropylcellulose) (HPC).

As for `COc1cc2c(c(OC)c1OC)-c1ccc(OC)c(=O)cc1C(=O)CC2`, the T/C is 115 % of control (dose: 0.62 mg/kg/injection, schedule: Q01DX009 (ip), vehicle: Klucel (hydroxypropylcellulose) (HPC)) and 157 % of control (dose: 5.0 mg/kg/injection, schedule: Q01DX009 (ip), vehicle: Klucel (hydroxypropylcellulose) (HPC)).

Consider `O=c1[nH]c(=O)n(C2CCCS2)cc1F` (configuration not stated), for which the T/C runs as follows: (dose: 37.5 mg/kg/injection, schedule: Q01DX009 (ip), vehicle: suspension in saline) 100 % of control; (dose: 75.0 mg/kg/injection, schedule: Q01DX009 (ip), vehicle: suspension in saline) 100 % of control; (dose: 150.0 mg/kg/injection, schedule: Q01DX009 (ip), vehicle: suspension in saline) 97 % of control.

Regarding `O=c1c(CS(=O)(=O)c2ccccc2)c(-c2ccccc2)c1=O`, the T/C is, setting by setting: (dose: 100.0 mg/kg/injection, schedule: Q04DX002 (ip), vehicle: saline with Tween-80) 104 % of control; (dose: 200.0 mg/kg/injection, schedule: Q04DX002 (ip), vehicle: saline with Tween-80) 104 % of control; (dose: 400.0 mg/kg/injection, schedule: Q04DX002 (ip), vehicle: saline with Tween-80) 97 % of control.

Take `[Cl][Pt+2][Cl].[NH-]C1CCCC1[NH-]` (configuration not stated): the T/C is, setting by setting: (dose: 3.13 mg/kg/injection, schedule: Q04DX002 (ip), vehicle: saline with Tween-80) 158 % of control; (dose: 6.25 mg/kg/injection, schedule: Q04DX002 (ip), vehicle: saline with Tween-80) 198 % of control and 190 % of control and 171 % of control; (dose: 12.5 mg/kg/injection, schedule: Q04DX002 (ip), vehicle: saline with Tween-80) 210 % of control and 197 % of control and 222 % of control; (dose: 25.0 mg/kg/injection, schedule: Q04DX002 (ip), vehicle: saline with Tween-80) 235 % of control and 112 % of control.

With `O=C1c2cc(Br)ccc2OC2CCON12` (configuration not stated), the T/C is, setting by setting: under setting [1], 108 % of control; under setting [2], 107 % of control; under setting [3], 94 % of control.

For the compound `Cc1nn(C(=O)c2ccncc2)c(C)c1N=Nc1c(C)[nH]n(-c2ccccc2)c1=O`, the T/C under setting [4] was 95 % of control, the T/C under setting [5] is 102 % of control and the T/C under setting [6] is 101 % of control.

With `COc1ccc(C)cc1NC(=S)NC(=O)/C=C/c1ccccc1`, the T/C under setting [7] is 97 % of control, the T/C under setting [8] is 87 % of control, the T/C under setting [9] is 96 % of control and the T/C under setting [10] was 98 % of control.

Turning to `CN(C)C1C(=O)C(C(=O)NCNCCC(=O)O)=C(O)C2(O)C(=O)C3=C(O)c4c(O)cccc4C(C)(O)C3CC12` (configuration not stated), the T/C under setting [11] was 101 % of control; the T/C under setting [12] was 94 % of control; the T/C (dose: 200.0 mg/kg/injection, schedule: Q01DX005 (ip), vehicle: saline) is 101 % of control.

As for `Cc1ncc(C(=O)O)n1C(C)c1ccccc1` (configuration not stated), the T/C is 108 % of control (dose: 60.0 mg/kg/injection, schedule: Q01DX005 (ip), vehicle: saline with Tween-80); 103 % of control (dose: 120.0 mg/kg/injection, schedule: Q01DX005 (ip), vehicle: saline with Tween-80); 110 % of control (dose: 240.0 mg/kg/injection, schedule: Q01DX005 (ip), vehicle: saline with Tween-80).

On to `CC1CCOn2c1nc1ccccc1c2=O` (configuration not stated), for which the T/C was 97 % of control under setting [1], 102 % of control under setting [2] and 113 % of control under setting [3].

For the compound `c1ccc(CSc2nn[nH]n2)cc1`, the T/C under setting [4] is 96 % of control, the T/C under setting [5] was 102 % of control and the T/C under setting [6] is 101 % of control.

For the compound `Ic1ncn(CCN2CCOCC2)c1I`, the T/C is, setting by setting: (dose: 25.0 mg/kg/injection, schedule: Q01DX005 (ip), vehicle: Klucel (hydroxypropylcellulose) (HPC)) 88 % of control; under setting [13], 97 % of control; under setting [14], 94 % of control; under setting [15], 97 % of control.

Consider `CC(CN1CC(=O)NC(=O)C1)N1CC(=O)NC(=O)C1` (configuration not stated), for which the T/C is, setting by setting: (dose: 6.48 mg/kg/injection, schedule: Q04DX002 (ip), vehicle: saline) 117 % of control; (dose: 50.0 mg/kg/injection, schedule: Q04DX002 (ip), vehicle: Klucel (hydroxypropylcellulose) (HPC)) 123 % of control; (dose: 64.8 mg/kg/injection, schedule: Q04DX003 (ip), vehicle: saline) 119 % of control; (dose: 77.8 mg/kg/injection, schedule: Q04DX002 (ip), vehicle: saline with Tween-80) 118 % of control; (dose: 180.0 mg/kg/injection, schedule: Q04DX002 (ip), vehicle: saline) 156 % of control; (dose: 180.0 mg/kg/injection, schedule: Q04DX003 (ip), vehicle: saline) 161 % of control. Further, the T/C reads like this: (dose: 200.0 mg/kg/injection, schedule: Q04DX002 (ip), vehicle: Klucel (hydroxypropylcellulose) (HPC)) 153 % of control and 163 % of control; (dose: 216.0 mg/kg/injection, schedule: Q04DX002 (ip), vehicle: saline with Tween-80) 152 % of control; (dose: 300.0 mg/kg/injection, schedule: Q04DX002 (ip), vehicle: saline) 174 % of control; (dose: 300.0 mg/kg/injection, schedule: Q04DX003 (ip), vehicle: saline) 214 % of control and 217 % of control; (dose: 360.0 mg/kg/injection, schedule: Q04DX002 (ip), vehicle: saline with Tween-80) 195 % of control; (dose: 400.0 mg/kg/injection, schedule: Q04DX002 (ip), vehicle: Klucel (hydroxypropylcellulose) (HPC)) 223 % of control and 94 % of control. Further, the T/C by setting is: (dose: 500.0 mg/kg/injection, schedule: Q04DX002 (ip), vehicle: saline) 100 % of control; (dose: 500.0 mg/kg/injection, schedule: Q04DX003 (ip), vehicle: saline) 118 % of control and 219 % of control; (dose: 600.0 mg/kg/injection, schedule: Q04DX002 (ip), vehicle: saline with Tween-80) 213 % of control.

In the case of `O=S(=O)(CCl)OCCCl`, the T/C reads like this: (dose: 25.0 mg/kg/injection, schedule: Q01DX009 (ip), vehicle: saline with Tween-80) 120 % of control; (dose: 75.0 mg/kg/injection, schedule: Q01DX009 (ip), vehicle: saline with Tween-80) 170 % of control; (dose: 100.0 mg/kg/injection, schedule: Q01DX009 (ip), vehicle: saline with Tween-80) 218 % of control.

For the compound `CCn1c(=O)c2n[nH]nc2n(CCO)c1=O`, the T/C by setting is: under setting [1], 97 % of control; under setting [2], 100 % of control.

On to `CCC1CCC2CCCCN2CO1` (configuration not stated), for which the T/C is 101 % of control (dose: 12.5 mg/kg/injection, schedule: Q01DX005 (ip), vehicle: saline); 118 % of control (dose: 25.0 mg/kg/injection, schedule: Q01DX005 (ip), vehicle: saline); 114 % of control and 123 % of control under setting [11]; 114 % of control and 121 % of control under setting [12].

For `C[CH2][Sn]([Br])([CH2]C)[c]1ccccc1CN(C)C`, the T/C is, setting by setting: (dose: 12.5 mg/kg/injection, schedule: Q01DX009 (ip), vehicle: saline) 100 % of control and 114 % of control; under setting [7], 100 % of control and 114 % of control; under setting [8], 117 % of control and 124 % of control.

With `CC(C)(C)C(=O)Oc1ccc[nH]c1=O`, the T/C is 100 % of control and 110 % of control under setting [7]; 106 % of control and 116 % of control under setting [8]; 100 % of control and 116 % of control under setting [9]; 121 % of control and 94 % of control under setting [10]; 106 % of control and 109 % of control (dose: 400.0 mg/kg/injection, schedule: Q01DX009 (ip), vehicle: saline).

Turning to `O=C(c1ccccc1)C1OC1C(=O)c1ccccc1` (configuration not stated), the T/C is 95 % of control under setting [1], 100 % of control under setting [2] and 102 % of control under setting [3].

Turning to `N#CC(C#N)=C1SCCCS1`, the T/C reads like this: under setting [8], 105 % of control; under setting [9], 95 % of control; under setting [10], 98 % of control.

Turning to `Cn1cnc([N+](=O)[O-])c1Sc1nnc(-c2ccccc2)c(-c2ccccc2)n1`, the T/C is 88 % of control under setting [13], 86 % of control under setting [14] and 92 % of control under setting [15].

With `O=C(NC1C=Nc2ccc([N+](=O)[O-])cc2NC1=O)c1ccc(Cl)cc1` (configuration not stated), the T/C runs as follows: (dose: 60.0 mg/kg/injection, schedule: Q01DX005 (ip), vehicle: Klucel (hydroxypropylcellulose) (HPC)) 91 % of control; (dose: 120.0 mg/kg/injection, schedule: Q01DX005 (ip), vehicle: Klucel (hydroxypropylcellulose) (HPC)) 93 % of control; (dose: 240.0 mg/kg/injection, schedule: Q01DX005 (ip), vehicle: Klucel (hydroxypropylcellulose) (HPC)) 92 % of control.
